From patent publication US20130274338A1, “PHARMACEUTICAL COMPOSITIONS COMPRISING DGLA, 15-OHEPA, AND/OR 15-HETRE AND METHODS OF REDUCING SEBUM PRODUCTION USING SAME” (priority 2012, published 2013)

Test system: P. acnes
Experiment: Agar dilution method, growth of P. acnes and MIC, combinations with a fatty acid spike
Type: cell-based, Propionibacterium acnes
Design: key to Growth Index Plate 1 / Growth Index Plate 2 / Growth Index Plate 3 / Growth Index Avg: +++: confluent growth (comparable to control); ++: less confluent growth; +: marked reduction in growth to multiple tiny, single colonies; −: no growth present
Method: Several compounds including fatty acids such as DGLA, 15-OHEPA, and 15-HETrE were tested to determine their capacity to inhibit the growth of P. acnes. In an exemplary method, an agar dilution method was used to determine the minimum inhibitory concentration (MIC) of each tested compound. Briefly, the agar dilution method involved preparing a series of concentrations of each compound (e.g., nicotinamide, benzoyl peroxide, adapalene, metronidazole, DGLA, 15-OHEPA, and 15-HETrE) in a Reinforced Clostridial Agar (RCA) media that facilitates growth of P. acnes under anaerobic conditions. An inoculum of P. acnes was prepared by incubation of P. acnes for approximately seven days at 35-37° C. to achieve a ≧1.0 OD600 inoculum of P. acnes in RCM broth. A portion of this inoculum was then added to the surface of each plate as a 10 μL spot and incubated at 35-37° C. for 72 hours or more. Growth of P. acnes was then observed and compared to control plates in which no compound has been added, and positive inhibition plates prepared with erythromycin. […] The growth of P. acnes in the presence of nicotinamide, benzoyl peroxide, adapalene, metronidazole, DGLA, 15-OHEPA, and 15-HETrE was determined with varying concentrations of the compound (see, Table 2). Next, the MIC was determined as the concentration at which a marked reduction (+) occurs in the appearance of growth on the test plate (as per Clinical and Laboratory Standards Institute M11-A7).
The compounds tested singly in Example 1 were tested in combination with one another to determine the capacity of the combination to inhibit the growth of P. acnes. In an exemplary method, the MIC was determined for each of the combination as described in Example 1. Briefly, test combinations included DGLA with nicotinamide, benzoyl peroxide, adapalene, or metronidazole; 15-HETrE with nicotinamide, benzoyl peroxide, adapalene, or metronidazole; and 15-OHEPA with nicotinamide, benzoyl peroxide, adapalene, or metronidazole. The tables below show the growth of P. acnes in the presence of 0.4 or 1.0 mg/mL DGLA with varying concentrations of nicotinamide, benzoyl peroxide, adapalene, or metronidazole (Table 3); the growth of P. acnes in the presence of 0.01 or 0.05 mg/mL 15-HETrE with varying concentrations of nicotinamide, benzoyl peroxide, adapalene, or metronidazole (Table 5); and the growth of P. acnes in the presence of 0.5 or 0.1 mg/mL 15-OHEPA with varying concentrations of nicotinamide, benzoyl peroxide, adapalene, or metronidazole (Table 7).

[1] = compound at 0.2 mg/mL + 0.01 mg/mL 15-HETrE
[2] = compound at 0.2 mg/mL + 0.05 mg/mL 15-HETrE
[3] = compound at 0.2 mg/mL + 0.05 mg/mL 15-OHEPA
[4] = compound at 0.2 mg/mL + 0.1 mg/mL 15-OHEPA
[5] = compound at 0.2 mg/mL + 0.4 mg/mL dGLA
[6] = compound at 0.2 mg/mL + 1.0 mg/mL dGLA
[7] = compound at 0.4 mg/mL + 0.01 mg/mL 15-HETrE
[8] = compound at 0.4 mg/mL + 0.05 mg/mL 15-HETrE
[9] = compound at 0.4 mg/mL + 0.05 mg/mL 15-OHEPA
[10] = compound at 0.4 mg/mL + 0.1 mg/mL 15-OHEPA
[11] = compound at 0.4 mg/mL + 0.4 mg/mL dGLA
[12] = compound at 0.4 mg/mL + 1.0 mg/mL dGLA
[13] = compound at 0.6 mg/mL + 0.01 mg/mL 15-HETrE
[14] = compound at 0.6 mg/mL + 0.05 mg/mL 15-HETrE
[15] = compound at 0.6 mg/mL + 0.05 mg/mL 15-OHEPA
[16] = compound at 0.6 mg/mL + 0.1 mg/mL 15-OHEPA
[17] = compound at 0.6 mg/mL + 0.4 mg/mL dGLA
[18] = compound at 0.6 mg/mL + 1.0 mg/mL dGLA
[19] = compound at 0.8 mg/mL + 0.01 mg/mL 15-HETrE
[20] = compound at 0.8 mg/mL + 0.05 mg/mL 15-HETrE
[21] = compound at 0.8 mg/mL + 0.05 mg/mL 15-OHEPA
[22] = compound at 0.8 mg/mL + 0.1 mg/mL 15-OHEPA
[23] = compound at 0.8 mg/mL + 0.4 mg/mL dGLA
[24] = compound at 0.8 mg/mL + 1.0 mg/mL dGLA
[25] = compound at 1.0 mg/mL + 0.01 mg/mL 15-HETrE
[26] = compound at 1.0 mg/mL + 0.05 mg/mL 15-HETrE
[27] = compound at 1.0 mg/mL + 0.05 mg/mL 15-OHEPA
[28] = compound at 1.0 mg/mL + 0.1 mg/mL 15-OHEPA
[29] = compound at 1.0 mg/mL + 0.4 mg/mL dGLA
[30] = compound at 1.0 mg/mL + 1.0 mg/mL dGLA

O=C(OOC(=O)c1ccccc1)c1ccccc1 [Benzoyl Peroxide]
−: Growth Index Avg [2] | Growth Index Plate 1 [2] | Growth Index Plate 2 [2] | Growth Index Plate 3 [2] | Growth Index Avg [4] | Growth Index Plate 1 [4] | Growth Index Plate 2 [4] | Growth Index Plate 3 [4] | Growth Index Avg [8] | Growth Index Plate 1 [8] | Growth Index Plate 2 [8] | Growth Index Plate 3 [8] | Growth Index Avg [10] | Growth Index Plate 1 [10] | Growth Index Plate 2 [10] | Growth Index Plate 3 [10] | Growth Index Avg [11] | Growth Index Plate 2 [11] | Growth Index Plate 3 [11] | Growth Index Avg [12] | Growth Index Plate 1 [12] | Growth Index Plate 3 [12] | Growth Index Avg [14] | Growth Index Plate 1 [14] | Growth Index Plate 2 [14] | Growth Index Plate 3 [14] | Growth Index Avg [16] | Growth Index Plate 1 [16] | Growth Index Plate 2 [16] | Growth Index Plate 3 [16] | Growth Index Avg [17] | Growth Index Plate 1 [17] | Growth Index Plate 2 [17] | Growth Index Plate 3 [17] | Growth Index Avg [18] | Growth Index Plate 1 [18] | Growth Index Plate 2 [18] | Growth Index Plate 3 [18] | Growth Index Avg [20] | Growth Index Plate 1 [20] | Growth Index Plate 2 [20] | Growth Index Plate 3 [20] | Growth Index Avg [21] | Growth Index Plate 1 [21] | Growth Index Plate 2 [21] | Growth Index Plate 3 [21] | Growth Index Avg [22] | Growth Index Plate 1 [22] | Growth Index Plate 2 [22] | Growth Index Plate 3 [22] | Growth Index Avg [23] | Growth Index Plate 1 [23] | Growth Index Plate 2 [23] | Growth Index Plate 3 [23] | Growth Index Avg [24] | Growth Index Plate 1 [24] | Growth Index Plate 2 [24] | Growth Index Plate 3 [24] | Growth Index Avg [25] | Growth Index Plate 1 [25] | Growth Index Plate 2 [25] | Growth Index Plate 3 [25] | Growth Index Avg [26] | Growth Index Plate 1 [26] | Growth Index Plate 2 [26] | Growth Index Plate 3 [26] | Growth Index Avg [27] | Growth Index Plate 1 [27] | Growth Index Plate 2 [27] | Growth Index Plate 3 [27] | Growth Index Avg [28] | Growth Index Plate 1 [28] | Growth Index Plate 2 [28] | Growth Index Plate 3 [28] | Growth Index Avg [29] | Growth Index Plate 1 [29] | Growth Index Plate 2 [29] | Growth Index Plate 3 [29] | Growth Index Avg [30] | Growth Index Plate 1 [30] | Growth Index Plate 2 [30] | Growth Index Plate 3 [30]
++: Growth Index Avg [6] | Growth Index Plate 1 [6] | Growth Index Plate 2 [6] | Growth Index Avg [9] | Growth Index Plate 1 [9] | Growth Index Plate 2 [9] | Growth Index Plate 3 [9] | Growth Index Avg [13] | Growth Index Plate 1 [13] | Growth Index Plate 2 [13] | Growth Index Plate 3 [13]
+++: Growth Index Avg [1] | Growth Index Plate 1 [1] | Growth Index Plate 2 [1] | Growth Index Plate 3 [1] | Growth Index Avg [3] | Growth Index Plate 1 [3] | Growth Index Plate 2 [3] | Growth Index Plate 3 [3] | Growth Index Avg [5] | Growth Index Plate 1 [5] | Growth Index Plate 2 [5] | Growth Index Plate 3 [5] | Growth Index Avg [7] | Growth Index Plate 1 [7] | Growth Index Plate 2 [7] | Growth Index Plate 3 [7]
did not reduce the growth: growth of P. Acnes in combination with 15-HETrE, compared with 15-HETrE used alone (in combination with 15-HETrE)
+: Growth Index Plate 3 [6] | Growth Index Plate 1 [11] | Growth Index Plate 2 [12] | Growth Index Avg [15] | Growth Index Plate 1 [15] | Growth Index Plate 2 [15] | Growth Index Plate 3 [15] | Growth Index Avg [19] | Growth Index Plate 1 [19] | Growth Index Plate 2 [19] | Growth Index Plate 3 [19]
